Test results as given in ChEMBL document CHEMBL3580659, “One-pot multicomponent synthesis of indole incorporated thiazolylcoumarins and their antibacterial, anticancer and DNA cleavage studies” (2015).

What was measured:
Format in all cases: functional
[1] = tested on: MDA-MB-435; experiment: Cytotoxicity against human MDA-MB-435 cells assessed as cell growth level at 100 uM after 48 hrs by sulforhodamine B assay
[2] = tested on: SK-MEL-2; experiment: Cytotoxicity against human SK-MEL-2 cells assessed as cell growth level at 100 uM after 48 hrs by sulforhodamine B assay
[3] = tested on: UACC-257; experiment: Cytotoxicity against human UACC257 cells assessed as cell growth level at 100 uM after 48 hrs by sulforhodamine B assay
[4] = tested on: NCI-H23; experiment: Cytotoxicity against human NCI-H23 cells assessed as cell growth level at 10 nM after 48 hrs by sulforhodamine B assay
[5] = tested on: OVCAR-8; experiment: Cytotoxicity against human OVCAR8 cells assessed as cell growth level at 10 nM after 48 hrs by sulforhodamine B assay
[6] = Cytotoxicity against human NCI-ADR-RES cells assessed as cell growth level at 10 nM after 48 hrs by sulforhodamine B assay
[7] = tested on: A498; experiment: Cytotoxicity against human A498 cells assessed as cell growth level at 10 nM after 48 hrs by sulforhodamine B assay
[8] = tested on: NCI-H522; experiment: Cytotoxicity against human NCI-H522 cells assessed as cell growth level at 100 nM after 48 hrs by sulforhodamine B assay
[9] = tested on: HT-29; experiment: Cytotoxicity against human HT-29 cells assessed as cell growth level at 100 nM after 48 hrs by sulforhodamine B assay
[10] = tested on: OVCAR-3; experiment: Cytotoxicity against human OVCAR3 cells assessed as cell growth level at 100 nM after 48 hrs by sulforhodamine B assay
[11] = tested on: RPMI-8226; experiment: Cytotoxicity against human RPMI8226 cells assessed as cell growth level at 10 uM after 48 hrs by sulforhodamine B assay
[12] = tested on: MCF7; experiment: Cytotoxicity against human MCF7 cells assessed as cell growth level at 100 nM after 48 hrs by sulforhodamine B assay
[13] = tested on: RPMI-8226; experiment: Cytotoxicity against human RPMI8226 cells assessed as cell growth level at 1 uM after 48 hrs by sulforhodamine B assay
[14] = tested on: NCI-H460; experiment: Cytotoxicity against human NCI-H460 cells assessed as cell growth level at 10 uM after 48 hrs by sulforhodamine B assay
[15] = tested on: NCI-H522; experiment: Cytotoxicity against human NCI-H522 cells assessed as cell growth level at 10 uM after 48 hrs by sulforhodamine B assay
[16] = tested on: MDA-MB-435; experiment: Cytotoxicity against human MDA-MB-435 cells assessed as cell growth level at 10 uM after 48 hrs by sulforhodamine B assay
[17] = tested on: SK-MEL-5; experiment: Cytotoxicity against human SK-MEL-5 cells assessed as cell growth level at 10 uM after 48 hrs by sulforhodamine B assay
[18] = tested on: UO-31; experiment: Cytotoxicity against human UO31 cells assessed as cell growth level at 10 uM after 48 hrs by sulforhodamine B assay
[19] = tested on: PC-3; experiment: Cytotoxicity against human PC3 cells assessed as cell growth level at 10 uM after 48 hrs by sulforhodamine B assay
[20] = tested on: M14; experiment: Cytotoxicity against human M14 cells assessed as cell growth level at 1 uM after 48 hrs by sulforhodamine B assay
[21] = tested on: SK-MEL-28; experiment: Cytotoxicity against human SK-MEL-28 cells assessed as cell growth level at 1 uM after 48 hrs by sulforhodamine B assay
[22] = tested on: SK-MEL-5; experiment: Cytotoxicity against human SK-MEL-5 cells assessed as cell growth level at 1 uM after 48 hrs by sulforhodamine B assay
[23] = Cytotoxicity against human NCI-ADR-RES cells assessed as cell growth level at 1 uM after 48 hrs by sulforhodamine B assay
[24] = tested on: SK-OV-3; experiment: Cytotoxicity against human SKOV3 cells assessed as cell growth level at 1 uM after 48 hrs by sulforhodamine B assay
[25] = tested on: MDA-MB-231; experiment: Cytotoxicity against human MDA-MB-231/ATCC cells assessed as cell growth level at 1 uM after 48 hrs by sulforhodamine B assay
[26] = tested on: CCRF-CEM; experiment: Cytotoxicity against human CCRF-CEM cells assessed as cell growth level at 100 uM after 48 hrs by sulforhodamine B assay
[27] = tested on: BT-549; experiment: Cytotoxicity against human BT549 cells assessed as cell growth level at 10 uM after 48 hrs by sulforhodamine B assay
[28] = tested on: SF-295; experiment: Cytotoxicity against human SF295 cells after 48 hrs by sulforhodamine B assay; settings: SF-295, 48 h
[29] = tested on: SF-539; experiment: Cytotoxicity against human SF539 cells after 48 hrs by sulforhodamine B assay; settings: SF-539, 48 h
[30] = tested on: SNB-75; experiment: Cytotoxicity against human SNB75 cells after 48 hrs by sulforhodamine B assay; settings: SNB-75, 48 h
[31] = tested on: SK-MEL-2; experiment: Cytotoxicity against human SK-MEL-2 cells after 48 hrs by sulforhodamine B assay; settings: SK-MEL-2, 48 h
[32] = tested on: 786-0; experiment: Cytotoxicity against human 786-0 cells after 48 hrs by sulforhodamine B assay; settings: 786-0, 48 h
[33] = tested on: A498; experiment: Cytotoxicity against human A498 cells after 48 hrs by sulforhodamine B assay; settings: A498, 48 h
[34] = tested on: ACHN; experiment: Cytotoxicity against human ACHN cells after 48 hrs by sulforhodamine B assay
[35] = tested on: UO-31; experiment: Cytotoxicity against human UO31 cells after 48 hrs by sulforhodamine B assay; settings: UO-31, 48 h
[36] = tested on: A549; experiment: Cytotoxicity against human A549/ATCC cells assessed as cell growth level at 10 nM after 48 hrs by sulforhodamine B assay
[37] = read-out: LC50 (the source's name)
[38] = read-out: pLC50 (the source's name) (converted)

SMILES: O=c1oc2ccccc2cc1-c1csc(N/N=C/c2c[nH]c3ccccc23)n1
- Activity [1]: -69%
- Activity [2]: -93%
- Activity [3]: -89%
- Activity [4]: 86%
- Activity [5]: 104%
- Activity [6]: 105%
- Activity [7]: 95%
- Activity [8]: 107%
- Activity [9]: 105%
- Activity [10]: 90%
- Activity [11]: -33.83%
- Activity [12]: 95%
- Activity [13]: 48%
- Activity [14]: 5.79%
- Activity [15]: -77.8%
- Activity [16]: 22.44%
- Activity [17]: 69.78%
- Activity [18]: -90.51%
- Activity [19]: -37.33%
- Activity [20]: 89%
- Activity [21]: 93%
- Activity [22]: 90%
- Activity [23]: 104%
- Activity [24]: 64%
- Activity [25]: 92%
- Activity [26]: -39%
- Activity [27]: -12.14%
- GI50 ([28]; read-out: GI50): 2.23 µM
- CC50 [28, 37]: > 100 µM
- TGI ([28]; read-out: TGI): 6.76 µM
- GI50 ([28]; read-out: pGI50 (converted)): 2.24 µM
- CC50 [28, 38]: > 100 µM
- TGI ([28]; read-out: pTGI (converted)): 6.76 µM
- GI50 ([29]; read-out: GI50): 1.58 µM
- CC50 [29, 37]: 7.25 µM
- TGI ([29]; read-out: TGI): 3.38 µM
- GI50 ([29]; read-out: pGI50 (converted)): 1.58 µM
- CC50 [29, 38]: 7.24 µM
- TGI ([29]; read-out: pTGI (converted)): 3.39 µM
- GI50 ([30]; read-out: GI50): 2 µM
- CC50 [30, 37]: > 100 µM
- TGI ([30]; read-out: TGI): 8.92 µM
- GI50 ([30]; read-out: pGI50 (converted)): 2 µM
- CC50 [30, 38]: > 100 µM
- TGI ([30]; read-out: pTGI (converted)): 8.91 µM
- GI50 ([31]; read-out: GI50): 1.61 µM
- CC50 [31, 37]: 8.17 µM
- TGI ([31]; read-out: TGI): 3.62 µM
- GI50 ([31]; read-out: pGI50 (converted)): 1.62 µM
- CC50 [31, 38]: 8.13 µM
- TGI ([31]; read-out: pTGI (converted)): 3.63 µM
- GI50 ([32]; read-out: GI50): 1.35 µM
- CC50 [32, 37]: > 100 µM
- TGI ([32]; read-out: TGI): 4.09 µM
- GI50 ([32]; read-out: pGI50 (converted)): 1.35 µM
- CC50 [32, 38]: > 100 µM
- TGI ([32]; read-out: pTGI (converted)): 4.07 µM
- GI50 ([33]; read-out: GI50): 2.21 µM
- CC50 [33, 37]: > 100 µM
- TGI ([33]; read-out: TGI): 8.2 µM
- GI50 ([33]; read-out: pGI50 (converted)): 2.19 µM
- CC50 [33, 38]: > 100 µM
- TGI ([33]; read-out: pTGI (converted)): 8.13 µM
- GI50 ([34]; read-out: GI50): 1.31 µM
- CC50 [34, 37]: 70.8 µM
- TGI ([34]; read-out: TGI): 4.36 µM
- GI50 ([34]; read-out: pGI50 (converted)): 1.32 µM
- CC50 [34, 38]: 70.8 µM
- TGI ([34]; read-out: pTGI (converted)): 4.37 µM
- GI50 ([35]; read-out: GI50): 0.76 µM
- CC50 [35, 37]: 5.47 µM
- TGI ([35]; read-out: TGI): 2.23 µM
- GI50 ([35]; read-out: pGI50 (converted)): 0.759 µM
- CC50 [35, 38]: 5.5 µM
- TGI ([35]; read-out: pTGI (converted)): 2.24 µM
- Activity [36]: 94%
